Publication PMC2919811 (Analytical biochemistry, 2010)
Like-named read-outs stand apart in the source and are kept apart here.

What was measured:
OCT2 = biological target: T1, OCT2 (Homo sapiens, UniProt O15244); test: Cellular accumulation in CHO cells transiently transfected with OCT2; type: cell-based; conditions: 10 μM substrate, transiently transfected CHO cells
T1 sequence (O15244 1-555): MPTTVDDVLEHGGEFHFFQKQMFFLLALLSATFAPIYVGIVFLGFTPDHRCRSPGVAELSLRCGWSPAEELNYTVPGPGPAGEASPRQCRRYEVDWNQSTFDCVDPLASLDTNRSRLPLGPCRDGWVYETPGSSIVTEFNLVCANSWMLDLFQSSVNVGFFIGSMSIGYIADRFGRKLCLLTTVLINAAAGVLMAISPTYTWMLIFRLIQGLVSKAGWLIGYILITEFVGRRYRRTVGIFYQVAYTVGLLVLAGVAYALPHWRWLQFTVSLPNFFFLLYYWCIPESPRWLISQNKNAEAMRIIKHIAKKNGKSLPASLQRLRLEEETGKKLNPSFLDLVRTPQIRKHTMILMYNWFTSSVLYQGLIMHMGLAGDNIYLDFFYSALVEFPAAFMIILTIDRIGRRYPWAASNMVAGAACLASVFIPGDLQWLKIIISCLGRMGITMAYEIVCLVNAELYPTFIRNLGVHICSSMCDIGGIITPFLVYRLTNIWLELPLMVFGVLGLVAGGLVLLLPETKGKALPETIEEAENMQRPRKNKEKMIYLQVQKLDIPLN

OCT1 = biological target: T2, OCT1 (Homo sapiens, UniProt O15245); test: Cellular accumulation in CHO cells transiently transfected with OCT1; type: cell-based; conditions: 10 μM substrate, transiently transfected CHO cells
T2 sequence (O15245 1-554): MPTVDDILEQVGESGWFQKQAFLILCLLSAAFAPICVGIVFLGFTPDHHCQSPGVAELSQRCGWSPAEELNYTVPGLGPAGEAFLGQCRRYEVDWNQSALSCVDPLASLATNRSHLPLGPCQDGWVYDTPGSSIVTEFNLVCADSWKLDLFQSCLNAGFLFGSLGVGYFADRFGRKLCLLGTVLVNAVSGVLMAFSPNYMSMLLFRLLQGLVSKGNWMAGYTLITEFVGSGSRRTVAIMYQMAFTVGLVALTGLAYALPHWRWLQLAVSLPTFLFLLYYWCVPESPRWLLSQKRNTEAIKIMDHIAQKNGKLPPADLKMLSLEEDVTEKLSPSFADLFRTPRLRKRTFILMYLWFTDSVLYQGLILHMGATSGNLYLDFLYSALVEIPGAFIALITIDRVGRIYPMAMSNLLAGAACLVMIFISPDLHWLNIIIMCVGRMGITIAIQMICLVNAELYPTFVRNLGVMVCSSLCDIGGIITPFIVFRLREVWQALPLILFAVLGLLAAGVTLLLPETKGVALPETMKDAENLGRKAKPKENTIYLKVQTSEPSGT

OATP1B3 [1] = biological target: T3, OATP1B3 (Homo sapiens, UniProt Q9NPD5)
T3 sequence (Q9NPD5 1-702): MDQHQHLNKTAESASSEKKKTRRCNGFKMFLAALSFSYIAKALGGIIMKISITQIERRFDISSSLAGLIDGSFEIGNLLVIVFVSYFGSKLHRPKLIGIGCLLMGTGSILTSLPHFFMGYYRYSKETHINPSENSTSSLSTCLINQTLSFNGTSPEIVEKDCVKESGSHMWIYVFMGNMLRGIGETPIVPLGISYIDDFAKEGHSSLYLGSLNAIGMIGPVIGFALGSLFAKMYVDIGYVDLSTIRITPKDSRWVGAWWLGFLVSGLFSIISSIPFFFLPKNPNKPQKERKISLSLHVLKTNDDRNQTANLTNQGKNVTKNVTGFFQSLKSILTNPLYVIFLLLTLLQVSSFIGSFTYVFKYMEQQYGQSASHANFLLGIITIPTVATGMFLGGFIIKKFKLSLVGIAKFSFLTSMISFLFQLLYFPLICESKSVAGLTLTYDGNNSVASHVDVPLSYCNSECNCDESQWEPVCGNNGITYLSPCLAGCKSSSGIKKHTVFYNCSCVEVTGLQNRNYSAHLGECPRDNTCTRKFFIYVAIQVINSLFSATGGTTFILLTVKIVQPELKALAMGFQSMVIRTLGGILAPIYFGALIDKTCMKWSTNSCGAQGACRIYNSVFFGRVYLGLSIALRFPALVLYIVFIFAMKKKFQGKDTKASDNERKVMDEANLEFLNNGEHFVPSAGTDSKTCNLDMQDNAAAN

OATP1B1 [2] = biological target: T4, OATP1B1 (Homo sapiens, UniProt Q9Y6L6); conditions: 2 μM substrate, transiently transfected CHO cells
T4 sequence (Q9Y6L6 whole entry): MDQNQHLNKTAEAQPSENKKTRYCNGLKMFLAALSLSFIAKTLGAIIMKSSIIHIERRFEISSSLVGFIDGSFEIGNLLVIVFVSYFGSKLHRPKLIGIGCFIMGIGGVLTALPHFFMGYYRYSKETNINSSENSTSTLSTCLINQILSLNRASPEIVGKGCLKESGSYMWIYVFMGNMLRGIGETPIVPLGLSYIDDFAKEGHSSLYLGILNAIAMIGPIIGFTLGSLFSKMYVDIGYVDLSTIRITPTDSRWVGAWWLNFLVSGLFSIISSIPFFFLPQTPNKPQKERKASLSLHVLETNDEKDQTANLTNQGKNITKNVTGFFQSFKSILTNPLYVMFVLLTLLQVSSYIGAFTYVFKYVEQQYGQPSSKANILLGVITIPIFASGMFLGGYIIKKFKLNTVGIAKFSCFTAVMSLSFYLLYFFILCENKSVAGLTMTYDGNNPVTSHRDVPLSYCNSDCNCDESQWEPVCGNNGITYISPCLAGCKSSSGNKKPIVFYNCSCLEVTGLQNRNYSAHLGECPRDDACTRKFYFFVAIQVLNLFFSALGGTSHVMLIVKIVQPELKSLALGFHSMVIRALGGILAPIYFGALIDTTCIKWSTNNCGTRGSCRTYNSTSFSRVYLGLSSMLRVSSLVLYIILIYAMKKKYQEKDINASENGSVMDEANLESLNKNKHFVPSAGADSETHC

OATP1B1 [3] = biological target: T4, OATP1B1; test: Substrate uptake and transport kinetics in CHO cells stably expressing OATP1B1; conditions: 2 μM substrate, five minute accumulation, CHOvector = 1
OATP1B3 [4] = biological target: T3, OATP1B3; conditions: read-out: OATP1B3 Km; literature value; cited from earlier work
OATP2B1 [5] = biological target: T5, OATP2B1 (Homo sapiens, UniProt O94956); test: Cellular accumulation in CHO cells transiently transfected with OATP2B1; type: cell-based; conditions: 2 μM substrate, transiently transfected CHO cells
T5 sequence (O94956 1-709): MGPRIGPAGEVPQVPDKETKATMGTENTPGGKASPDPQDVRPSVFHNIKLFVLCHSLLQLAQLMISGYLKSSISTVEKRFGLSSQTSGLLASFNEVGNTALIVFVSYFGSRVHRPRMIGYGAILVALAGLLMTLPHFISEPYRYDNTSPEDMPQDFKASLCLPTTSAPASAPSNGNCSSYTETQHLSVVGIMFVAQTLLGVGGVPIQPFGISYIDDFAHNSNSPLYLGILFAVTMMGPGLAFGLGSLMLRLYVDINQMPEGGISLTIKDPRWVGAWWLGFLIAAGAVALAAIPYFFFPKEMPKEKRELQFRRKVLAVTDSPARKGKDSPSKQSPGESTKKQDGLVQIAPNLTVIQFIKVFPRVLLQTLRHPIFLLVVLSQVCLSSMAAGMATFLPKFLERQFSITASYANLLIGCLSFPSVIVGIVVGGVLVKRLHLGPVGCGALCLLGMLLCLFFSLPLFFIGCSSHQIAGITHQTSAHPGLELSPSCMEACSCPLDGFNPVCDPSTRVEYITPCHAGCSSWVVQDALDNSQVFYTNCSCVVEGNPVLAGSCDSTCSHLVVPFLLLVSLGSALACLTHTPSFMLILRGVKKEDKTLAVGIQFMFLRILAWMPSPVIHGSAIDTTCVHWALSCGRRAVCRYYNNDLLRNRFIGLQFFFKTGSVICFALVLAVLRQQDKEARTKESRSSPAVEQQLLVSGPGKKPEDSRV

OAT3 = biological target: T6, OAT3 (Homo sapiens, UniProt Q8TCC7); type: cell-based; conditions: 2 μM substrate, transiently transfected CHO cells
T6 sequence (Q8TCC7 1-542): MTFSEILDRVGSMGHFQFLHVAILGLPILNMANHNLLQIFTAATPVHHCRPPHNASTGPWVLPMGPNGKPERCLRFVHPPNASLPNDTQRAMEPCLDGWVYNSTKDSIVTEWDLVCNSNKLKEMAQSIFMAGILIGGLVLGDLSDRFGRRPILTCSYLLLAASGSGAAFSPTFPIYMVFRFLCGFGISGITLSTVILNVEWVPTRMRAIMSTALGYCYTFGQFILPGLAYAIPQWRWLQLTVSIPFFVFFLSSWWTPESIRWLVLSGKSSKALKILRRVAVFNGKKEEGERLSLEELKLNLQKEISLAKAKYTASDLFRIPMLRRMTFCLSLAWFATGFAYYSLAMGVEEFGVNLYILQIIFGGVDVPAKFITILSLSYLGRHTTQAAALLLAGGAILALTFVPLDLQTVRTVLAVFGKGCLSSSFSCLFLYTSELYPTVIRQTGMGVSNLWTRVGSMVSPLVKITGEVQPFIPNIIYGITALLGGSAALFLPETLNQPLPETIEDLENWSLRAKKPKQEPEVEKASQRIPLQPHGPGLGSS

OATP1B3 [6] = biological target: T3, OATP1B3; test: Substrate uptake and transport kinetics in CHO cells stably expressing OATP1B3; conditions: 2 μM substrate, five minute accumulation, CHOvector = 1
OATP1B1 [7] = biological target: T4, OATP1B1
OATP1B3 [8] = biological target: T3, OATP1B3; test: Cellular accumulation in CHO cells transiently transfected with OATP1B3; conditions: 2 μM substrate (figure 2 legend), transiently transfected CHO cells
OATP1B1 [9] = biological target: T4, OATP1B1; conditions: read-out: OATP1B1 Km; literature value; cited from earlier work
OATP2B1 [10] = biological target: T5, OATP2B1; test: Substrate uptake in CHO cells stably expressing OATP2B1; type: cell-based; conditions: 2 μM substrate, five minute accumulation, CHOvector = 1
NTCP = biological target: T7, NTCP (Homo sapiens, UniProt Q14973); test: Cellular accumulation in CHO cells transiently transfected with NTCP; type: cell-based; conditions: 2 μM substrate, transiently transfected CHO cells
T7 sequence (Q14973 1-349): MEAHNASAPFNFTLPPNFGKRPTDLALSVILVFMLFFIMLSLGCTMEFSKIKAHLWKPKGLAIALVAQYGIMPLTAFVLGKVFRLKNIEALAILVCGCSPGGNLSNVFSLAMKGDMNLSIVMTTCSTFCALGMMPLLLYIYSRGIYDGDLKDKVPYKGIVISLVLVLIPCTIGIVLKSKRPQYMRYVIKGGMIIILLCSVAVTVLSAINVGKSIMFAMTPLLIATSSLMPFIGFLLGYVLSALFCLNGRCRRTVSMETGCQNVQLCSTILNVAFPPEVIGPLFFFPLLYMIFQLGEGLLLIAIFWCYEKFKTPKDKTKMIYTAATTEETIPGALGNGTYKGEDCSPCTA

[11] = read-out: OATP1B3 IC50 value, inhibition of OATP1B3-mediated transport of 1.25 μM 8-FcA, 10 min, mean ± standard error, two experiments
[12] = read-out: OATP1B1 IC50 value, inhibition of OATP1B1-mediated transport of […] 8-FcA, 10 min, mean ± standard error, two experiments

Structure (SMILES): CN(C)C(=N)N=C(N)N [metformin]
- mean increase in transport over vector control, OCT2 (OCT2): 24.5 fold
- mean increase in transport over vector control, OCT1 (OCT1): 2.4 fold

Structure (SMILES): COc1ccc(Cl)cc1C(=O)NCCc1ccc(S(=O)(=O)NC(=O)NC2CCCCC2)cc1 [glibenclamide]
- IC50 (OATP1B3 [1]): 2.69 ± 0.12 µM

Structure (SMILES): C[C@]12CC[C@@H]3c4ccc(OS(=O)(=O)O)cc4CC[C@H]3[C@@H]1CCC2=O [estrone-3-sulfate]
- increase in activity compared to vector control, OATP1B1 (OATP1B1 [2]): 3.1 fold
- cellular accumulation relative to control, CHOOATP1B1 (OATP1B1 [3]): 36.1 fold
- Km (OATP1B3 [4]): 58 µM
- increase in activity compared to vector control, OATP2B1 (OATP2B1 [5]): 12.5 fold
- increase in activity compared to vector control, OAT3 (OAT3): 3.8 fold
- IC50 (OATP1B3 [1]; [11]): 20.1 ± 1 µM
- cellular accumulation relative to control, CHOOATP1B3 (OATP1B3 [6]): 4.1 fold
- IC50 (OATP1B1 [7]; [12]): 0.053 ± 0.005 µM

Structure (SMILES): O=C1OC(c2ccc(O)c(S(=O)(=O)O)c2)(c2ccc(O)c(S(=O)(=O)O)c2)c2c(Br)c(Br)c(Br)c(Br)c21 [bromosulfophthalein]
- increase in activity versus vector control, OATP1B3 (OATP1B3 [8]): 1.26 fold
- Km (OATP1B3 [4]): 0.4 µM
- IC50 (OATP1B3 [1]; [11]): 0.51 ± 0.02 µM
- Km (OATP1B1 [9]): 0.3 µM
- cellular accumulation relative to control, CHOOATP1B3 (OATP1B3 [6]): 13.8 fold
- IC50 (OATP1B1 [7]; [12]): 0.18 ± 0.02 µM
- cellular accumulation relative to control, CHOOATP2B1 (OATP2B1 [10]): 6.6 fold

Structure (SMILES): C[C@]12CC[C@@H]3c4ccc(O)cc4CC[C@H]3[C@@H]1CC[C@@H]2O[C@@H]1O[C@H](C(=O)O)[C@@H](O)[C@H](O)[C@H]1O [estradiol-17β-d-glucuronide]
- Km (OATP1B3 [4]): 15.8 µM
- IC50 (OATP1B3 [1]; [11]): 23.5 ± 1.59 µM
- Km (OATP1B1 [9]): 5.4 µM
- IC50 (OATP1B1 [7]; [12]): 4.88 ± 0.87 µM

Structure (SMILES): NC(Cc1cc(I)c(Oc2cc(I)c(O)c(I)c2)c(I)c1)C(=O)O (centres unmarked) [thyroxine]
- IC50 (OATP1B3 [1]): 2.13 ± 0.17 µM
- Km (OATP1B1 [9]): 3 µM
- IC50 (OATP1B1 [7]): 3.85 ± 0.88 µM

Structure (SMILES): C[C@H](CCC(=O)NCCS(=O)(=O)O)[C@H]1CC[C@H]2[C@@H]3[C@H](O)C[C@@H]4C[C@H](O)CC[C@]4(C)[C@H]3C[C@H](O)[C@]12C [taurocholate]
- increase in transport compared to vector control, NTCP (NTCP): 168.9 fold

Structure (SMILES): CO[C@H]1/C=C/O[C@@]2(C)Oc3c(C)c(O)c4c(O)c(c(/C=N/N5CCN(C)CC5)c(O)c4c3C2=O)NC(=O)/C(C)=C\C=C\[C@H](C)[C@H](O)[C@@H](C)[C@@H](O)[C@@H](C)[C@H](OC(C)=O)[C@@H]1C [rifampicin]
- IC50 (OATP1B3 [1]): 0.65 ± 0.02 µM
- Km (OATP1B1 [9]): 13 µM
- IC50 (OATP1B1 [7]): 0.99 ± 0.07 µM
